Data as given in paper PMC12406664, “New derivatives of 6-nitrocoumarin-3-thiosemicarbazone exhibit improved antiparasitic activity in the placenta against Trypanosoma cruzi and Toxoplasma gondii” (Antimicrobial Agents and Chemotherapy, 2025).
Like-named read-outs stand apart in the source and are kept apart here.

Assays:
[1] = tested on: T. cruzi trypomastigotes, Dm28 strain; assay: Resazurin viability assay on free T. cruzi trypomastigotes
Protocol: The reduction of resazurin sodium salt was used to determine the trypanocidal and toxoplasmicidal activity of the 6-nitrocoumarin-thiosemicarbazone hybrids 1–8. For this, treatment with the compounds was carried out for 24 h at a concentration of 100 µM.
NFX was used as a positive control for T. cruzi, and PMN was used for T. gondii. Untreated parasites served as a negative control. […] Subsequently, parasites with their respective conditions were transferred to a 96-well white fluorescence reading plate, adding resazurin at a final concentration of […] with 0.8 mM phenazine. The plate was incubated for 3 hours at 37°C in a humidified atmosphere with 5% CO2, and fluorescence measurements were taken using a microplate reader (Thermo Scientific Varioskan Flash) at excitation wavelengths of 560 nm and emission wavelengths of 590 nm.

[2] = tested on: T. gondii tachyzoites, RH strain; assay: Resazurin viability assay on free T. gondii tachyzoites; assay type: cell-based, Toxoplasma gondii; conditions: Toxoplasma gondii; tachyzoites RH; 100 µM; 24 h
From the text: Untreated parasites served as a negative control.

[3] = tested on: intracellular amastigotes of T. cruzi (Tulahuen β-gal); assay: Intracellular amastigotes, β-galactosidase-expressing T. cruzi in LLC-MK2 cells (CPRG); assay type: cell-based, Trypanosoma cruzi; conditions: 72 h
Protocol: The effect of the compounds over intracellular amastigotes of a β-galactosidase-expressing recombinant strain of T. cruzi (Tulahuen β-gal) was also evaluated (see Table S4 at https://doi.org/10.5281/zenodo.15694236). […] Similarly, intracellular anti-T. gondii tachyzoite was assessed using quantitative immunocytochemistry targeting the parasite’s P30 protein (see Table S4 at https://doi.org/10.5281/zenodo.15694236). […] The complete absence of activity of hydroxylated compounds against intracellular forms of both parasites was confirmed, which could be attributed to their inability to permeate mammalian cell membranes.
LLC-MK2 cells (2 × 10^4/well), suspended in 200 µL DMEM with 10% FBSi and 1% antibiotics (penicillin-streptomycin), were placed in each well of a 96-well plate and incubated for 24 hours. Subsequently, the culture medium was removed, and cell monolayers were infected by placing five trypomastigotes per cell in 200 µL of DMEM 2 for 24 hours under the same incubation conditions. After infection, the culture medium was removed, and cells were washed 4 times with 1× sterile PBS. Finally, 10 twofold serial dilutions (200 µM to 0.39 µM concentration range) of each compound, in DMEM 2 without phenol red, were placed in duplicate wells in a 96-well plate and incubated for 72 hours. […] Absorbance at 600 nm was read 4 hours later, in a multimodal GloMax microplate reader (Promega).

[4] = Lipophilicity by reversed-phase TLC (RM); conditions: reverse phase-C18, DMSO/phosphate buffer pH 7.4 (70:30 vol/vol), RM = log[(1/Rf) – 1]
Protocol: Lipophilicity was studied by reversed-phase TLC experiments. Precoated TLC plates SIL RP-18W/UV254 were used and eluted with DMSO/physiological serum (70:30, vol/vol). Stock solutions were prepared in pure DMSO (Aldrich) prior to use. The plates were developed in a closed chromatographic tank, dried, and the spots were located under UV light. The Rf values were averaged from three determinations and converted into RM values via the relationship: RM = log [(1/Rf)−1]

[5] = Cyclic voltammetry, reduction potentials in DMSO (HDME, vs. Ag/AgCl); conditions: 2.00 V/s
Protocol: Electrochemical studies were carried out on a Metrohm Autolab instrument model PGSTAT204, using dimethyl sulfoxide (DMSO) as the solvent (1 mM solutions), tetrabutylammonium perchlorate (0.1 M TBAP) as the supporting electrolyte, a hanging drop mercury electrode (HDME) as the working electrode, Ag/AgCl (3M KCl) as the reference electrode and a graphite rod as the counter electrode. All measurements were performed after bubbling with nitrogen (N2) for 10 minutes.

[6] = Cytotoxicity on cells (resazurin), EA.hy926; assay type: cell-based; conditions: human, EA.hy926 endothelial cells
From the text: (§1) Triton X-100 was used as a positive control, and untreated cells served as a negative control. In addition, the maximum concentration of DMSO was used as a control for the method. […] The obtained values were expressed as IC50([88]).

[7] = Cytotoxicity on cells (resazurin), BeWo; assay type: cell-based; conditions: human, BeWo trophoblast cells
From the text: as §1

[8] = tested on: T. cruzi (Dm28 strain) in BeWo cells; assay: Infection of BeWo cells by T. cruzi, infected cells counted by fluorescence microscopy; assay type: cell-based, Trypanosoma cruzi; conditions: compound at IC50, untreated control 24 ± 3
Protocol: The effect of the compounds on the infection of BeWo trophoblast cells by T. gondii and T. cruzi was assessed. The DNA of T. gondii and T. cruzi was quantified in infected BeWo cells treated for 24 hours under two conditions: co-incubation and post-infection treatment. […] Fluorescence microscopy was employed to quantify the number of infected cells. The resulting images were analyzed using ImageJ software to count both infected and uninfected cells.
For the microscopic analysis of BeWo cells infected with T. cruzi, the cells were washed with PBS to remove the supernatant, fixed with 90% cold methanol, rewashed with PBS, and incubated for 5 minutes with 1 µg/mL—1 4,6-diamidino-2-phenylindole (DAPI) (Molecular Probes). To analyze BeWo cells infected with T. gondii, cells were fixed with 90% cold methanol, washed with PBS containing 0.05% Tween, and blocked using 3% BSA for 1 hour at 37°C. Then, they were incubated with the primary monoclonal antibody Toxoplasma gondii (TP3): sc-52255 at a dilution of 1:500 with 1% BSA overnight at 4°C. […] T. cruzi amastigotes were identified by their morphology, including nuclear size and the presence of a kinetoplast, and were analyzed and quantified using ImageJ. At least 500 cells per condition were analyzed, and infected and non-infected cells were counted for every 100 cells ([35], [70]). […]

[9] = tested on: T. cruzi (Dm28 strain) in HPE; assay: T. cruzi DNA load in infected human placental explants (HPE) by real-time qPCR; assay type: cell-based, Trypanosoma cruzi; conditions: IC50 concentration
From the text: Cells or HPE were exposed to parasites. […] The following treatment conditions were used in both infection models.

[10] = tested on: HPE exposed to T. cruzi trypomastigotes; assay: Histopathology of HPE infected with T. cruzi; assay type: cell-based, human; conditions: co-incubation, IC50 concentration
[11] = tested on: human placental explants (HPE); assay: Histopathology of uninfected HPE exposed to the compounds alone; conditions: explants incubated only with the compound, 24 h, IC50 concentration
Protocol: The HPE was fixed in 10% formaldehyde in 0.1 M phosphate buffer (pH 7.3) for 24 h, dehydrated in alcohol, clarified in xylene, embedded in paraffin, and sectioned at 3 µm. Paraffin histological sections were stained with hematoxylin-eosin for routine histological analysis, Picro Sirius red, and trichromic Masson for collagen histochemistry. Sections for the histological analysis were observed under an optical microscope (Leica DM500) and images were captured with a Leica ICC50 W camera ([7], [91]).

[12] = vs. Ag/AgCl; cited from earlier work
[13] = tested on: T. cruzi trypomastigotes, Dm28 strain; conditions: read-out: IC50 T. cruzi; cited from earlier work
[14] = tested on: T. gondii tachyzoites (strain RH); assay: Intracellular ROS generation (DCF probe) in T. gondii; assay type: cell-based, Toxoplasma gondii; conditions: compound at IC50, menadione 20 µM, 40 minutes, vs untreated control
Protocol: ROS detection was performed using the 2′,7′-dichlorodihydrofluorescein diacetate (DCFH2-DA) method ([45]). For the assay, Dm28c trypomastigotes and tachyzoites were seeded in 96-well plates at a density of 10⁶ parasites/mL. In contrast, BeWo cells were seeded at 5 × 10⁴ cells per well, using the previously described culture medium.
After incubation with 20 µM DCFH2-DA for 15 minutes at 37°C, the parasites were centrifuged at 3,500 × g, washed twice with PBS (pH 7.4), and subsequently transferred to Nunc 96-well fluorescence plates. Meanwhile, after 24 hours of incubation at 37°C and 5% CO₂, the culture medium of BeWo cells was replaced, and 20 µM DCFH2-DA solution was added, followed by a 15 minute incubation at 37°C. The cells were then washed with PBS at pH 7.4. As a positive control, 20 µM menadione was used, while the negative control consisted of culture medium without compounds.
Over time, the area under the fluorescence increase curve was determined using Origin 8 software (version 9.2), with normalization relative to the control. The results correspond to three independent experiments' mean ± standard deviation (SD).

[15] = tested on: T. cruzi trypomastigotes (strain Dm28); assay: ESR spin trapping with DMPO in T. cruzi; assay type: cell-based, Trypanosoma cruzi; conditions: compound about 1 mM, menadione 20 µM
Protocol: (§2) Each tested hybrid was dissolved in spectroscopy-grade DMSO at an approximate concentration of 1 mM and added to a mixture containing Trypanosoma cruzi (Dm28c strain) or Toxoplasma gondii at a density of 50 × 10⁶ trypomastigotes or tachyzoites per mL, along with DMPO at a final concentration of 250 mM. Menadione (20 µM) was used as a positive control.
(§3) All spectra were acquired on the same scale after 15 scans.

[16] = tested on: T. gondii tachyzoites (strain RH); assay: ESR spin trapping with DMPO in T. gondii; assay type: cell-based, Toxoplasma gondii; conditions: compound about 1 mM, menadione 20 µM
Protocol: as §2, §3

C/C(=N\NC(=S)Nc1ccccc1)c1cc2cc([N+](=O)[O-])ccc2oc1=O [Compound 8, (E)−2-(1-(6-nitro-2-oxo-2H-chromen-3-yl)ethylidene)-N-phenylhydrazine-1-carbothioamide]
viability at 100 µM ([1]; Trypanosoma cruzi, 24 h, read-out: Viability T. cruzi (%)): 45.2 ± 6.7%
viability at 100 µM [2]: 86.2 ± 14.4%
activity over intracellular amastigotes [3]: most active
Lipophilicity (RM) [4]: 0.20
E(pIIa) ([5]; anodic peak IIa): −0.86 V
E(pIIIc) ([5]; cathodic peak IIIc, hydroxylamine formation): −1.39 V
E(pIIc) ([5]; cathodic peak IIc, nitro anion radical couple): −0.94 V
E(pIVc) ([5]; cathodic peak IVc, imine reduction): −1.68 V

CC1CS(=O)(=O)CCN1/N=C/c1ccc([N+](=O)[O-])o1 (stereo not drawn) [NFX, nifurtimox, reference compound]
SI = BeWo CC50/parasite IC50 ([1]; parasite T. cruzi): >30
SI = EA.hy926 CC50/parasite IC50 ([1]; parasite T. cruzi): 34.9
CC50 at 24 h [6]: 348.5 ± 1.2 µM
CC50 at 24 h [7]: > 300 µM
Infected cells (%) ([8]; co-incubation 24 h): 2 ± 1%
Infected cells (%) ([8]; post-infection treatment 24 h): 23 ± 4%
effect on parasite DNA load ([9]; co-incubation): managed to reduce the parasitic load
effect on parasite DNA load ([9]; post-infection treatment): no statistically significant activity
tissue damage in infected HPE (histopathology) [10]: caused tissue damage
tissue damage caused by the compound itself in HPE [11]: caused tissue damage
E(pIIa) [12]: −0.70 V
E(pIIc) [12]: −0.75 V
IC50 [13]: 10 ± 0.4 µM

CC1=CC(=O)c2ccccc2C1=O [menadione, reference compound]
ROS generation (DCF fluorescence) [14]: significant increase in ROS production
radical species detected by ESR spin trapping (DMPO) [15]: triplet (aN ~15.5 G) corresponding to a DMPO-derived oxidized paramagnetic compound
radical species detected by ESR spin trapping (DMPO) [16]: formation of multiple signals
